This passage reports Activity and MIC results from ChEMBL document CHEMBL1147273, “3-Dimethylallylindole: an antibacterial and antifungal metabolite from Monodora tenuifolia” (1986).

For assay [1], the system named is Aspergillus niger. As to the kind of experiment: Antimicrobial activity against Aspergillus niger ATCC 16888 by towfold serial dilution method. The format is functional, organism-based.
Assay [2] has as its system Saccharomyces cerevisiae. The assay can be described thus: Antimicrobial activity against Saccharomyces cerevisiae ATCC 9763 by towfold serial dilution method. The format is functional.
Assay [3] relates to Trichophyton mentagrophytes. As to the kind of experiment: Antimicrobial activity against Trichophyton mentagrophytes ATCC 9172 by towfold serial dilution method. The format is functional.
Assay [4] relates to Mycolicibacterium smegmatis. The assay can be described thus: Antimicrobial activity against Mycobacterium smegmatis ATCC 607 by towfold serial dilution method. In kind it is functional.
Assay [5] has as its system Staphylococcus aureus. The assay can be described thus: Antimicrobial activity against Staphylococcus aureus ATCC 6538 by towfold serial dilution method. In kind it is functional.
Assay [6] relates to Candida albicans. The assay can be described thus: Antimicrobial activity against Candida albicans WH by towfold serial dilution method. In kind it is functional.
The test system of assay [7] is Candida albicans. As to the kind of experiment: Antimicrobial activity against Candida albicans ATCC 10231 by towfold serial dilution method. In kind it is functional.
The subject of assay [8] is Escherichia coli. The assay can be described thus: Antimicrobial activity against Escherichia coli ATCC 10536 by towfold serial dilution method. The format is functional, organism-based.
Assay [9] concerns Helminthosporium. As to the kind of experiment: Antimicrobial activity against Helminthosporium sp. NRRL 4671 by towfold serial dilution method. In kind it is functional.
In assay [10] the test system is Pseudomonas aeruginosa. The assay can be described thus: Antimicrobial activity against Pseudomonas aeruginosa ATCC 15442 by towfold serial dilution method. In kind it is functional, organism-based.
Assay [11] deals with Cryptococcus neoformans. The assay can be described thus: Antimicrobial activity against Cryptococcus neoformans ATCC 32264 by towfold serial dilution method. In kind it is functional.
The subject of assay [12] is Trametes sanguinea. As to the kind of experiment: Antimicrobial activity against Pycnoporus sanguineus ATCC 14622 by towfold serial dilution method. In kind it is functional.
Assay [13] deals with Candida albicans. As to the kind of experiment: Antimicrobial activity against Candida albicans NIH B311 by towfold serial dilution method. In kind it is functional.
For assay [14], the system named is Bacillus subtilis. As to the kind of experiment: Antimicrobial activity against Bacillus subtilis ATCC 6633 by towfold serial dilution method. In kind it is functional.

As a reminder, the MIC is the smallest concentration in the dilution series that meets the test's criterion for growth inhibition.

SMILES strings stand for the structures. Values after ≈ are worked out from the molar mass of the structure shown. Active and inactive are the calls of the source.

As to `CC(C)=CCc1c[nH]c2ccccc12`, the outcome in [1], in [8] and in assay [10] was inactive. The MIC in assay [2] was found to be 12.5 µg/mL (≈ 67.5 µM); in assay [3] it was 1.56 µg/mL (≈ 8.42 µM); in [4], 3.12 µg/mL (≈ 16.8 µM); in assay [5], 12.5 µg/mL (≈ 67.5 µM); in assay [6], 25 µg/mL (≈ 135 µM); in assay [7], 25 µg/mL (≈ 135 µM). The MIC in assay [9] turned out to be 0.78 µg/mL (≈ 4.21 µM); in assay [11], 12.5 µg/mL (≈ 67.5 µM); in [12], 12.5 µg/mL (≈ 67.5 µM); in assay [13], 25 µg/mL (≈ 135 µM); in assay [14] it was 12.5 µg/mL (≈ 67.5 µM).
